PubChem BioAssay AID1745844 (Carcinogenic Potency Database (CPDB), 2022)
Activity calls are given as the source filed them. How the calls were made is not given here.

System: rodent lifetime carcinogenesis bioassay, tumor incidence TD50
Assay: carcinogenic potency in animals, long-term in vivo studies, CPDB compilation (AID 1745844)

ClC=C(Cl)Cl
TD50 (mouse, strain Swiss, males, inhaled, site: any site (literature study), lesion: several types, types named in the paper, dosed 78 weeks, study length 145 weeks): 8070 mg/kg/day | TD50 (mouse, strain Swiss, males, inhaled, site: liver, lesion: hepatoma, dosed 78 weeks, study length 145 weeks): 3910 mg/kg/day | TD50 (mouse, strain Swiss, males, inhaled, site: lung, lesion: one or several types, types not named, dosed 78 weeks, study length 145 weeks): 10100 mg/kg/day | TD50 (rat, strain ACI, females, by gavage, site: any site (literature study), lesion: several types, types named in the paper, dosed 103 weeks, study length 104 weeks): 61700 mg/kg/day | TD50 (rat, strain ACI, females, by gavage, site: kidney, lesion: adenocarcinoma, NOS + tubular-cell adenocarcinoma, dosed 103 weeks, study length 104 weeks): 7800 mg/kg/day | TD50 (rat, strain ACI, females, by gavage, site: kidney, lesion: adenocarcinoma, NOS + tubular-cell adenoma + tubular-cell adenocarcinoma, dosed 103 weeks, study length 104 weeks): 3760 mg/kg/day | TD50 (rat, strain ACI, males, by gavage, site: any site (literature study), lesion: several types, types named in the paper, dosed 103 weeks, study length 104 weeks): 820 mg/kg/day | TD50 (rat, strain ACI, males, by gavage, site: kidney, lesion: tubular-cell adenocarcinoma, dosed 103 weeks, study length 104 weeks): 12000 mg/kg/day | TD50 (rat, strain ACI, males, by gavage, site: liver, lesion: hepatocellular adenoma + hepatocellular carcinoma + neoplastic nodule, dosed 103 weeks, study length 104 weeks): 9400 mg/kg/day | TD50 (rat, strain August, females, by gavage, site: kidney, lesion: tubular-cell adenoma + tubular-cell adenocarcinoma, dosed 103 weeks, study length 104 weeks): 2240 mg/kg/day | TD50 (rat, strain August, males, by gavage, site: kidney, lesion: tubular-cell adenocarcinoma, dosed 103 weeks, study length 104 weeks): 10800 mg/kg/day | TD50 (rat, strain August, males, by gavage, site: kidney, lesion: tubular-cell adenoma + tubular-cell adenocarcinoma, dosed 103 weeks, study length 104 weeks): 3810 mg/kg/day | TD50 (rat, strain August, males, by gavage, site: liver, lesion: hepatocellular adenoma + hepatocellular carcinoma + neoplastic nodule, dosed 103 weeks, study length 104 weeks): 6440 mg/kg/day | TD50 (rat, strain August, males, by gavage, site: subcutaneous tissue, lesion: sarcoma, NOS + sarcoma, NOS, dosed 103 weeks, study length 104 weeks): 3730 mg/kg/day | TD50 (rat, strain Charles River CD (Sprague-Dawley), females, inhaled, site: kidney, lesion: tubular-cell adenocarcinoma, dosed 104 weeks, study length 107 weeks): 10700 mg/kg/day | TD50 (rat, strain Charles River CD (Sprague-Dawley), females, inhaled, site: liver, lesion: several types, types named in the paper, dosed 104 weeks, study length 107 weeks): 12300 mg/kg/day | TD50 (rat, strain Charles River CD (Sprague-Dawley), females, inhaled, site: mammary gland, lesion: fibroadenoma, dosed 104 weeks, study length 107 weeks): 982 mg/kg/day | TD50 (rat, strain Fischer 344, females, by gavage, site: any site (literature study), lesion: several types, types named in the paper, dosed 103 weeks, study length 103 weeks): 5710 mg/kg/day (inactive) | TD50 (rat, strain Fischer 344, females, by gavage, site: kidney, lesion: tubular-cell adenocarcinoma, dosed 103 weeks, study length 103 weeks): 23000 mg/kg/day | TD50 (rat, strain Fischer 344, females, by gavage, site: liver, lesion: hepatocellular adenoma + hepatocellular carcinoma + neoplastic nodule, dosed 103 weeks, study length 103 weeks): 9980 mg/kg/day | TD50 (rat, strain Fischer 344, males, by gavage, site: any site (literature study), lesion: several types, types named in the paper, dosed 103 weeks, study length 103 weeks): 2240 mg/kg/day | TD50 (rat, strain Fischer 344, males, by gavage, site: kidney, lesion: tubular-cell adenocarcinoma, dosed 103 weeks, study length 103 weeks): 3920 mg/kg/day | TD50 (rat, strain Fischer 344, males, by gavage, site: kidney, lesion: tubular-cell adenoma + tubular-cell adenocarcinoma, dosed 103 weeks, study length 103 weeks): 2780 mg/kg/day | TD50 (rat, strain Fischer 344, males, by gavage, site: liver, lesion: hepatocellular adenoma + hepatocellular carcinoma + neoplastic nodule, dosed 103 weeks, study length 103 weeks): 12200 mg/kg/day | TD50 (rat, strain Fischer 344, males, by gavage, site: peritoneum, lesion: mesothelioma, NOS + mesothelioma, malignant, dosed 103 weeks, study length 103 weeks): 1490 mg/kg/day | TD50 (rat, strain Fischer 344, males, by gavage, site: peritoneum, lesion: mesothelioma, malignant, dosed 103 weeks, study length 103 weeks): 1490 mg/kg/day | TD50 (rat, strain Han:WIST, females, inhaled, site: any site (literature study), lesion: benign tumor, dosed 78 weeks, study length 156 weeks): 2120 mg/kg/day (inactive) | carcinogen call (rat, strain Han:WIST, females, inhaled, site: any site (literature study), lesion: malignant tumor, dosed 78 weeks, study length 156 weeks): negative (inactive) | TD50 (rat, strain Han:WIST, females, inhaled, site: kidney, lesion: tubular-cell adenoma, dosed 78 weeks, study length 156 weeks): 5500 mg/kg/day (inactive) | carcinogen call (rat, strain Han:WIST, females, inhaled, site: liver, lesion: hepatocellular adenoma, dosed 78 weeks, study length 156 weeks): negative (inactive) | carcinogen call (rat, strain Han:WIST, males, inhaled, site: any site (literature study), lesion: benign tumor, dosed 78 weeks, study length 156 weeks): negative (inactive) | TD50 (rat, strain Han:WIST, males, inhaled, site: any site (literature study), lesion: malignant tumor, dosed 78 weeks, study length 156 weeks): 351 mg/kg/day (inactive) | TD50 (rat, strain Han:WIST, males, inhaled, site: kidney, lesion: tubular-cell adenocarcinoma, dosed 78 weeks, study length 156 weeks): 3850 mg/kg/day (inactive)
